{"source": "patent US20190255146A1", "about": "“POLYPEPTIDES FOR IMPROVED RESPONSE TO ANTI-CANCER THERAPY” (MUSC FOUNDATION FOR RESEARCH DEVELOPMENT, priority 2016, published 2019)", "key": {"[1]": {"system": "UM-SCC-47-derived xenograft tumors", "assay": "HPV(+) UM-SCC-47-derived xenograft tumor growth in SCID mice", "format": "in vivo", "conditions": "HPV(+) UM-SCC-47 xenografts, cisplatin 3.5 mg/kg for two weeks, tumor volumes days 0 and 14", "description": "(§1) To determine whether HPV(+) compared to HPV(−) HNSCC cells are more sensitive to stress-mediated growth inhibition in response to chemotherapeutic drugs, it was first established HPV(+) UM-SCC-47- and HPV(−) UM-SCC-22A-derived xenograft tumors in SCID mice. After the xenograft-derived tumors were ˜75-100 mm^3, the mice were treated with cisplatin (3.5 mg/kg) for two weeks, which is below its maximum tolerated doses (van Moorsel et al, 1999). Then, tumor volumes were measured at days 0 and 14 of treatment. […] After tumor growth measurements in the mice were taken, the tumors were surgically removed and the effects of cisplatin on CerS1-6 mRNA were measured by qRT-PCR.\n(§2) In vivo studies. […] Age- and sex-matched mice were used. […] Tumor volume was measured using calipers."}, "[2]": {"system": "UM-SCC-22A-derived xenograft tumors", "assay": "HPV(−) UM-SCC-22A-derived xenograft tumor growth in SCID mice", "format": "in vivo", "description": "as §1\nEight arginine residues (R8) were included on the N-terminus to enhance cell penetration of the E2F5 peptide (Rancher and Ryu, 2015).\nIn vivo studies. Severe combined immunodeficient (SCID) mice were purchased from Jackson Laboratories. Age- and sex-matched mice were used. All animal protocols were approved by the Institutional Animal Care and Use Committee at the Medical University of South Carolina. UM-SCC22A or UM-SCC47 cells (75,000) were implanted into the flanks of SCID mice (n=5-8 mice). When the tumors were palpable, the mice were treated every three days with 3.5 mg/kg cisplatin, 20 mg/kg C18-pyr-cer, or corresponding amount of vehicle control and/or 3.76 μg E2F5-peptide or scrambled control peptide. Tumor volume was measured using calipers. At the end of the 14-day treatment, the mice were euthanized and tumor tissues were collected (Sentelle et al, 2007; Saddoughi et al, 2013)."}, "UM-SCC-22A cells": {"system": "UM-SCC-22A cells", "assay": "Growth inhibition in culture, IC50 determination by MTT assay", "format": "cell-based", "conditions": "UM-SCC-22A (HPV−) cells, 48 h; read-out: IC50 (concentration that inhibited growth by 50%)", "description": "(§3) IC50 determination by MTT assay. Cells were plated in 96-well plates and allowed to adhere for 20 h, then treated with the indicated concentrations of drug. After 48 h treatment, the MTT assay (ATCC) was performed as described previously (Sentelle et al, 2012)."}, "UM-SCC-47 cells": {"system": "UM-SCC-47 cells", "assay": "Growth inhibition in culture, IC50 determination by MTT assay", "format": "cell-based", "description": "as §3"}, "CerS1-6 mRNA": {"system": "CerS1-6 mRNA", "assay": "CerS1-6 mRNA by qRT-PCR in HPV(+) UM-SCC-47 xenograft-derived tumors", "format": "in vivo, mice", "conditions": "day 14 versus day 0", "description": "as §1\nQuantitative RT-PCR. RNA was extracted from cell pellets using RNeasy kit (Qiagen) per the manufacturer's instructions. cDNA was generated using equal amounts of RNA from each sample and iScript cDNA synthesis kit (Bio-Rad) per manufacturer's instructions. Reactions were carried out using SsoFast probes mix (Bio-Rad) and TaqMan primer probes (ThermoFisher Scientific) in a StepOne Plus qPCR cycler as described by the manufacturer.\nas §2"}, "Drp1 [3]": {"system": "Drp1", "assay": "Drp1 oligomerization by Western blotting without reducing agents", "format": "cell-based", "conditions": "HPV(+) UM-SCC47 cells", "description": "FIGS. 7A-F. E2F5/Drp1 complex enhances HPV-E7/ceramide-dependent lethal mitophagy. (A) UM-SCC47 cells were treated with cisplatin or C18-pyr-cer and Western blotting was performed with cell lysates in the absence of reducing agents in the lysing buffer to detect monomeric and dimeric Drp1 protein abundance compared to vehicle-treated controls. Actin was used as a loading control. (B-C) Cell death was assessed by trypan blue exclusion assay in UM-SCC47 cells expressing dominant-negative Drp1 mutant (K38A-DRP1) and treated with C18-pyr-cer (B) or cisplatin (C) compared to vector-transfected controls. […] (D-E) Association between E2F5 and Drp1 in response to ceramide stress (C18-pyr-cer) was measured in UM-SCC-47 cells using PLA (D) or immunoprecipitation followed by Western blotting (E) with anti-Drp1 or anti-E2F5 antibodies. IgG was used as a control. […] PLA signals were quantified as described by the manufacturer using the PLA quantification software. […] Effects of siRNA-mediated HPV-E6/E7 knockdown on pRB, HPV-E7 and p53 protein abundance were also confirmed by Western blotting compared to Scr-siRNA-transfected controls in the absence/presence of C18-pyr-cer (right panel). Total RB was used a loading control (Rb band, upper panel).\nImmunoblotting. Cells were lysed in RIPA buffer plus protease inhibitor cocktail on ice for 15 minutes then centrifuged. […]"}, "CerS1": {"system": "CerS1", "assay": "CerS1 localization, Western blotting of cytoplasm versus mitochondria enriched fractions of UM-SCC-47 cells", "format": "cell-based", "conditions": "cisplatin 1 and 4 h versus 0 h", "description": "FIGS. 2A-G. HPV-E6 enhances chemotherapy-mediated cellular stress and CerS1/ceramide-mediated lethal mitophagy. (A-B) Effects of siRNA-mediated knockdown of HPV-E6/E7 on HPV(+) UM-SCC-47 cell death was assessed by MTT compared to Scr-siRNA-transfected and/or vehicle-treated controls. Successful knockdown of HPV-E6/E7 proteins were confirmed by Western blot analysis (B). […] (C) Effects of ectopic expression of HPV-E6 versus E7 on HPV(−) UM-SCC-22A cell death were measured by MTT. HPV-E6/E7 protein abundance was measured by Western blotting. […] (D) Effects of shRNA-mediated knockdown of CerS1 on mitophagy in response to cisplatin were measured by live cell imaging confocal micrographs of UM-SCC-47 cells stained with LTG and MTR. Scr-shRNA-transfected and/or vehicle-treated cells were used as controls. […] Images were quantified using ImageJ. (E) Cytoplasmic versus mitochondrial localization of CerS1 in the presence/absence of cisplatin at 0, 1, and 4 h was measured by Western blotting using anti-CerS1 antibody in cytoplasm (cyto)—versus mitochondria (mito)-enriched cellular fractions of UM-SCC-47 cells. Actin and Tom 20 were used as controls for cytoplasm- and mitochondria-enriched fractions, respectively. […] (F-G) Effects of shRNA-mediated knockdown of CerS6, confirmed by Western blotting (F), on UM-SCC-47 cell death in response to cisplatin were measured by trypan blue exclusion assay (G). […]"}, "LC3B": {"system": "LC3B", "assay": "LC3B lipidation by Western blotting in UM-SCC-47 cell extracts", "format": "cell-based", "conditions": "UM-SCC-47 cells, versus vehicle", "description": "FIGS. 12A-C. Knockdown of autophagy inducer LC3 inhibits cisplatin-mediated cell death in HPV(+) HNSCC cells. (A) Induction of autophagy in response to cisplatin was assessed by detection of LC3B lipidation using Western blotting in HPV(+) UM-SCC-47 cell extracts with anti-LC3B antibody compared to vehicle (veh) treated controls. Actin was used as a loading control. […] Samples shown are from the same representative blot but not in contiguous lanes. (B-C) Effects of siRNA-mediated knockdown of LC3B on cisplatin-mediated cell death were measured and IC50 concentrations were calculated by MTT assays compared to Scr-siRNA-transfected controls. […] Si-RNA-mediated knockdown of LC3B was confirmed using Western blotting with anti-LC3B antibody compared to Scr-siRNA-transfected controls (C). Actin was used as a loading control.\n(§4) Immunoblotting. Cells were lysed in RIPA buffer plus protease inhibitor cocktail on ice for 15 minutes then centrifuged. 30ug of protein from the supernatant were run on Criterion™ TGX™ Precast Gels (Bio-Rad)."}, "Drp1 [4]": {"target": "T1, Drp1 (Homo sapiens, UniProt O00429)", "T1 construct": "Western blotting using whole cell (UM-SCC-22A) lysates versus mitochondria-enriched fractions; endogenous in cells; host or cells: UM-SCC-22A", "T1 sequence (O00429 whole entry)": "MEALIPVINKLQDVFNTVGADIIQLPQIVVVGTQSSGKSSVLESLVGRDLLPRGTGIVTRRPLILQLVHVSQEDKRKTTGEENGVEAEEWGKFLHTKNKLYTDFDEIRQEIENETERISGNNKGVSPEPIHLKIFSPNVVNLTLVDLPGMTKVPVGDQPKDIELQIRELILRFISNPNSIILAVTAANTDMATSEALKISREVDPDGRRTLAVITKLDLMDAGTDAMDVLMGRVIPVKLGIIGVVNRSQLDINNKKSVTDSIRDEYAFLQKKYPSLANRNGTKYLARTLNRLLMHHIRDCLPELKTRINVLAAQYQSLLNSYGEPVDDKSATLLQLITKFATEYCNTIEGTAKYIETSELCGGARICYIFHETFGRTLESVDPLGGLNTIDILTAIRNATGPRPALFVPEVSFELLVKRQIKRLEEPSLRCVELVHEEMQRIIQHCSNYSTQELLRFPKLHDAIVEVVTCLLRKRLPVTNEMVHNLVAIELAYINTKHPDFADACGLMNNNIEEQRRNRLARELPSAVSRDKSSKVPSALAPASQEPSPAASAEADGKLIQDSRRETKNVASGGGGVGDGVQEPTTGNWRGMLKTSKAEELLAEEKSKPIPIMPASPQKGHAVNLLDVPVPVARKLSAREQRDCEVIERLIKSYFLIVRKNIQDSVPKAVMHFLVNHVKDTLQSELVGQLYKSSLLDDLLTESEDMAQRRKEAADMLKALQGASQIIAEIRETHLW", "assay": "Drp1 recruitment to mitochondria in HPV(−) UM-SCC-22A cells (Western blotting of mitochondria-enriched fractions)", "format": "cell-based", "conditions": "5 uM peptide, 20 uM C18-pyr-cer, 1.5 hours", "description": "Images were quantified using FIJI.\nas §4\nCell fractionation. Cells were treated with 40 uM cisplatin or vehicle for eight hours, 20 uM C18-pyr-cer or vehicle and/or 5 uM scr-pept or E2F5-pept for 1.5 hours. Mitochondria isolation kit (ThermoFisher Scientific) was used as described by the manufacturer."}, "[5]": {"target": "T2, retinoblastoma protein (RB) (UniProt P06400 2-928, limits assumed)", "T2 construct": "whole, on cells; Endogenous intracellular protein, detected with anti-RB antibody; also called pRB", "T2 sequence (looked up)": "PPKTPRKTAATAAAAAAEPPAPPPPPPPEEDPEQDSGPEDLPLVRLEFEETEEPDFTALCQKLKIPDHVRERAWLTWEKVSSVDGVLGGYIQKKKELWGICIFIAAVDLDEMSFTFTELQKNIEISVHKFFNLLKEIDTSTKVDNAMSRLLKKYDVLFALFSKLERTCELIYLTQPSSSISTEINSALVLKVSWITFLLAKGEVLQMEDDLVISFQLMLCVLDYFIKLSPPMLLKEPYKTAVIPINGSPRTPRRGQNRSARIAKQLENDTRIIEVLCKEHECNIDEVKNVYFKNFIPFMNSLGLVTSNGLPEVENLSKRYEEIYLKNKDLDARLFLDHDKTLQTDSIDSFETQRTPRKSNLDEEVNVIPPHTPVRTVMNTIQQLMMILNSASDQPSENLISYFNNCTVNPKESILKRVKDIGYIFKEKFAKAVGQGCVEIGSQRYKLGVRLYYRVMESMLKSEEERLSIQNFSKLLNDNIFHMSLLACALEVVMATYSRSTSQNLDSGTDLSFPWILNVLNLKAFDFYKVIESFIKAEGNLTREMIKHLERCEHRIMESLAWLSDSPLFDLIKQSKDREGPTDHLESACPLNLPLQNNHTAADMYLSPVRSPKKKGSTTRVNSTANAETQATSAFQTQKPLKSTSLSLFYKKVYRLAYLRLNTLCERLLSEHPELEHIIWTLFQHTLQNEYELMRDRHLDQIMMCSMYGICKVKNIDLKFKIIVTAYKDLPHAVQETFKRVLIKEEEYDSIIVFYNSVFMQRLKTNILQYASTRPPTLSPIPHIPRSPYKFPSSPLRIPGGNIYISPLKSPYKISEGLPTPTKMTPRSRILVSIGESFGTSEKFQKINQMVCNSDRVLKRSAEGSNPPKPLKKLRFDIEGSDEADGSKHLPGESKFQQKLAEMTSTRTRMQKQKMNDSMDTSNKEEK", "assay": "PLA with anti-GFP and anti-RB antibodies, UM-SCC-22A cells", "source_text": "PLA images were quantified using the PLA software as described by the manufacturer. […] Vector-GFP was used as a control (right panel, C)."}}}
{"molecule": "N.N.[Cl][Pt][Cl]", "note": "[cisplatin]", "values": [{"measurement": "inhibition of growth of xenografts in response to cisplatin", "setting": "[1]", "result": "~75", "unit": "%"}, {"measurement": "tumor suppression of xenografts", "setting": "[2]; HPV(−) UM-SCC-22A xenografts, cisplatin 3.5 mg/kg for two weeks", "result": "no detectable tumor suppression"}, {"measurement": "IC50", "setting": "UM-SCC-22A cells", "result": 28, "unit": "µM"}, {"measurement": "IC50", "setting": "UM-SCC-47 cells; UM-SCC-47 (HPV+) cells, 48 h, read-out: IC50 (concentration that inhibited growth by 50%)", "result": 8, "unit": "µM"}, {"measurement": "reduction of cisplatin-mediated growth inhibition by knockdown of CerS1", "setting": "UM-SCC-47 cells; UM-SCC-47 cells, CerS1 shRNA versus Scr-shRNA, MTT", "result": "~4", "unit": "fold"}, {"measurement": "resistance to cisplatin-mediated growth inhibition upon knockdown of E6 and E7", "setting": "UM-SCC-47 cells; UM-SCC-47 cells, HPV-E6/E7 siRNA versus Scr-siRNA, MTT", "result": "~8", "unit": "fold"}, {"measurement": "sensitivity for drug-induced growth inhibition/cell death, UM-SCC-47 compared to UM-SCC-22A cells", "setting": "UM-SCC-47 cells; cells in culture", "result": "~3", "unit": "fold"}, {"measurement": "CerS1 and CerS6 mRNA in tumors", "setting": "CerS1-6 mRNA", "result": "induced CerS1 and CerS6 mRNA"}, {"measurement": "Drp1 oligomerization and/or activation", "setting": "Drp1 [3]", "result": "Drp1 oligomerization and/or activation was observed"}, {"measurement": "accumulation of CerS1 in mitochondria", "setting": "CerS1", "result": "increased accumulation of CerS1 in mitochondria"}, {"measurement": "LC3B lipidation (marker of autophagy induction)", "setting": "LC3B", "result": "Increased LC3B lipidation"}]}
{"molecule": "Biotin-RRRRRRRR-LILFVIKLHQDVNDMRNSNQDQTQSEDRESKWY [scr-pept]", "values": [{"measurement": "tumor growth", "setting": "[2]; UM-SCC-22A xenografts, 3.76 μg peptide, absence/presence of cisplatin 3.5 mg/kg every 3 days for 2 weeks", "result": "no effect"}, {"measurement": "ceramide-induced Drp1 recruitment to mitochondria", "setting": "Drp1 [4]", "result": "not"}]}
{"molecule": "dimerization domain deleted mutant of E2F5, GFP-tagged (E2F5^Δ84-177-GFP) (other, Ectopically expressed in cells; not shown: GFP tag) MAAAEPASSGQQAPAGQGQGQRPPPQPPQAQAPQPPPPPQLGGAGGGSSRHEKSLGLLTTKFVSLLQEAKDGVLDLKAAADTLICNCFNGDTLLAIQAPSGTQLEVPIPEMGQNGQKKYQINLKSHSGPIHVLLINKESSSSKPVVFPVPPPDDLTQPSSQSLTPVTPQKSSMATQNLPEQHVSERSQALQQTSATDISSAGSISGDIIDELMSSDVFPLLRLSPTPADDYNFNLDDNEGVCDLFDVQILNY", "values": [{"measurement": "binding result", "setting": "[5]", "result": "binds"}]}
